Reference: US20240400555A1 (Initial Therapeutics, Inc., priority 2023, published 2024)

System: MV-4-11 cells
Test: Cell Viability Assay in MV-4-11 Cells
Assay type: cell-based
Settings: Homo sapiens, MV4-11, 72 h
Outline: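 Luminescent ATP read-out (CellTiter-Glo) after 72 h compound treatment of MV-4-11 leukaemia cells (7,000 per well, IMDM plus 10% FBS). Values expressed relative to DMSO control and derived by four-parameter non-linear regression.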

| Structure (SMILES) | IC50 |
| --- | --- |
| C=C(C)c1csc2ccnc(N(C(=O)c3ccc(-c4cn(C)nn4)cc3F)[C@@H]3CCCNC3)c12 [Example 842, (R)-2-fluoro-4-(1-methyl-1H-1,2,3-triazol-4-yl)-N-(piperidin-3-yl)-N-(3-(prop-1-en-2-yl)thieno[3,2-c]pyridin-4-yl)benzamide] | 270 nM |

Same assay, conditions: Homo sapiens, MV4-11, 72 h, MV-4-11 cells, 72 h, Cell-Titer Glo; read-out: IC50

| Structure (SMILES) | IC50 |
| --- | --- |
| O=C(O)c1ccc(-c2cc3c(N(C(=O)c4ccc(-n5nnc6cccnc65)cc4F)[C@@H]4CCCNC4)nccc3s2)cc1 [Example 379, 4-[4-[[2-fluoro-4-(triazolo[4,5-b]pyridin-3-yl)benzoyl]-[(3R)-3-piperidyl]amino]thieno[3,2-c]pyridin-2-yl]benzoic acid] | > 10000 nM |
| Cc1nnc(-c2ccc(C(=O)N(c3nccc4cc(F)cc(C)c34)[C@@H]3CCCNC3)nc2)s1 [Example 784, (R)—N-(6-fluoro-8-methylisoquinolin-1-yl)-5-(5-methyl-1,3,4-thiadiazol-2-yl)-N-(piperidin-3-yl)picolinamide] | 290 nM |
| Cc1cc(-c2cc3c(N(C(=O)c4ccc(-n5nnc6cccnc65)cc4F)[C@@H]4CCCNC4)nccc3s2)cc(C)c1C(N)=O [Example 606, (R)-4-(3H-[1,2,3]triazolo[4,5-b]pyridin-3-yl)-N-(2-(4-carbamoyl-3,5-dimethylphenyl)thieno[3,2-c]pyridin-4-yl)-2-fluoro-N-(piperidin-3-yl)benzamide] | 400 nM |
| Cc1cnc(-c2ccc3c(N(C(=O)c4ccc(-n5nnc6cccnc65)cc4F)[C@@H]4CCCNC4)nccc3c2)s1 [Example 574, (R)-4-(3H-[1,2,3]triazolo[4,5-b]pyridin-3-yl)-2-fluoro-N-(6-(5-methylthiazol-2-yl)isoquinolin-1-yl)-N-(piperidin-3-yl)benzamide] | 390 nM |
| Cc1cccc2ccnc(N(C(=O)c3ccc(-c4nnc5n4CCCC5)cc3F)[C@@H]3CCCNC3)c12 [Example 432, (R)-2-fluoro-N-(8-methylisoquinolin-1-yl)-N-(piperidin-3-yl)-4-(5,6,7,8-tetrahydro-[1,2,4]triazolo[4,3-a]pyridin-3-yl)benzamide] | 400 nM |
| Cc1cccc2ccnc(N(C(=O)c3cccc(C#CCCC(=O)NCc4ccncc4)c3)[C@@H]3CCCNC3)c12 [Example 517, (R)—N-(8-methylisoquinolin-1-yl)-3-(5-oxo-5-((pyridin-4-ylmethyl)amino)pent-1-yn-1-yl)-N-(piperidin-3-yl)benzamide] | 7300 nM |
| COCCCc1nnc(-c2ccc(C(=O)N(c3nccc4scc(C)c34)[C@@H]3CCCNC3)cc2)s1 [Example 876, 4-[5-(3-methoxypropyl)-1,3,4-thiadiazol-2-yl]-N-(3-methylthieno[3,2-c]pyridin-4-yl)-N-[(3R)-3-piperidyl]benzamide] | 290 nM |
| Cc1c(-c2ccc(C(=O)N(c3nccc4sc(-c5ccc(C(N)=O)cc5)cc34)[C@@H]3CCCNC3)c(F)c2)cnn1C [Example 612, (R)—N-(2-(4-carbamoylphenyl)thieno[3,2-c]pyridin-4-yl)-4-(1,5-dimethyl-1H-pyrazol-4-yl)-2-fluoro-N-(piperidin-3-yl)benzamide] | 280 nM |
| Cn1cc(-c2ccc(C(=O)N(c3nccc4cccc(/C=C/c5cn[nH]c5)c34)[C@@H]3CCCNC3)cc2)nn1 [Example 348, (R,E)-N-(8-(2-(1H-pyrazol-4-yl)vinyl)isoquinolin-1-yl)-4-(1-methyl-1H-1,2,3-triazol-4-yl)-N-(piperidin-3-yl)benzamide] | 460 nM |
| Cc1cccc2ccnc(N(C(=O)N3CCCC4(CCN(C(=O)OCc5ccccc5)CC4)C3)[C@@H]3CCCNC3)c12 [Example 342, benzyl (R)-2-((8-methylisoquinolin-1-yl)(piperidin-3-yl)carbamoyl)-2,9-diazaspiro [5.5]undecane-9-carboxylate] | 2000 nM |
| CC(C)NC(=O)c1ccc(-c2cc3c(N(C(=O)c4ccc(-c5cn(C)nn5)cc4F)[C@@H]4CCCNC4)nccc3s2)cc1 [Example 522, 2-fluoro-N-[2-[4-(isopropylcarbamoyl)phenyl]thieno[3,2-c]pyridin-4-yl]-4-(1-methyltriazol-4-yl)-N-[(3R)-3-piperidyl]benzamide] | 770 nM |
| Cc1csc2ccnc(N(C(=O)c3ccc(-c4nnn5c4CN(C)CC5)cc3F)[C@@H]3CCCNC3)c12 [Example 923, 2-fluoro-4-(5-methyl-6,7-dihydro-4H-triazolo[1,5-a]pyrazin-3-yl)-N-(3-methylthieno[3,2-c]pyridin-4-yl)-N-[(3R)-3-piperidyl]benzamide] | > 1000 nM |
| COc1ccc2c(N(C(=O)c3ccc(-c4cn(C)nn4)cc3)[C@@H]3CCCNC3)nccc2c1Cl [Example 869, N-(5-chloro-6-methoxy-1-isoquinolyl)-4-(1-methyltriazol-4-yl)-N-[(3R)-3-piperidyl]benzamide] | 1400 nM |

Continued, values first:

| IC50 | Structure (SMILES) |
| --- | --- |
| 81 nM | O=C(c1ccc(-n2nnc3cccnc32)cc1F)N(c1nccc2cc(/C=C/CO)ccc12)[C@@H]1CCCNC1 [Example 331, (R)-4-(3H-[1,2,3]triazolo[4,5-b]pyridin-3-yl)-2-fluoro-N-(6-(3-hydroxyprop-1-en-1-yl)isoquinolin-1-yl)-N-(piperidin-3-yl)benzamide] |
| 160 nM | Cc1nnc(-c2ccc(C(=O)N(c3nccc4cc(Cl)cc(C)c34)[C@@H]3CCCNC3)cc2F)s1 [Example 708, (R)—N-(6-chloro-8-methylisoquinolin-1-yl)-3-fluoro-4-(5-methyl-1,3,4-thiadiazol-2-yl)-N-(piperidin-3-yl)benzamide] |
| 180 nM | O=C(NCc1ccccc1)c1ccc2c(N(C(=O)c3ccc(-n4nnc5cccnc54)cc3F)[C@@H]3CCCNC3)nccc2c1 [Example 373, (R)-1-(4-(3H-[1,2,3]triazolo[4,5-b]pyridin-3-yl)-2-fluoro-N-(piperidin-3-yl)benzamido)-N-benzylisoquinoline-6-carboxamide] |
| 250 nM | O=C(c1ccc(-n2nnc3cccnc32)cc1F)N(c1nccc2cc(-c3cccnc3)ccc12)[C@@H]1CCCNC1 [Example 367, (R)-4-(3H-[1,2,3]triazolo[4,5-b]pyridin-3-yl)-2-fluoro-N-(piperidin-3-yl)-N-(6-(pyridin-3-yl)isoquinolin-1-yl)benzamide] |
| 120 nM | Cc1cccc2ccnc(N(C(=O)c3ccc(Nc4nccc(NCc5ccccc5)n4)cc3F)[C@@H]3CCCNC3)c12 [Example 786, (R)-4-((4-(benzylamino)pyrimidin-2-yl)amino)-2-fluoro-N-(8-methylisoquinolin-1-yl)-N-(piperidin-3-yl) benzamide] |
| 32 nM | Cc1cccc2ccnc(N(C(=O)c3ccc(Nc4nccc(C5=CCC(O)CC5)n4)cc3F)[C@@H]3CCCNC3)c12 (stereo partly drawn) [Example 681, 2-fluoro-4-((4-(4-hydroxycyclohex-1-en-1-yl)pyrimidin-2-yl)amino)-N-(8-methylisoquinolin-1-yl)-N—((R)-piperidin-3-yl)benzamide] |
| 260 nM | Cc1cccc2ccnc(N(C(=O)c3ccc(Nc4nccc(N)n4)cc3F)[C@@H]3CCCNC3)c12 [Example 848, (R)-4-((4-aminopyrimidin-2-yl)amino)-2-fluoro-N-(8-methylisoquinolin-1-yl)-N-(piperidin-3-yl)benzamide] |
| 92 nM | Cn1cc(-c2ccc(C(=O)N(c3nccc4sc(-c5ccc6[nH]ccc6c5)cc34)[C@@H]3CCCNC3)c(F)c2)nn1 [Example 546, 2-fluoro-N-[2-(1H-indol-5-yl)thieno[3,2-c]pyridin-4-yl]-4-(1-methyltriazol-4-yl)-N-[(3R)-3-piperidyl]benzamide] |
| 86 nM | Cc1nnc(-c2ccc(C(=O)N(c3nccc4cc(Cl)cc(C)c34)[C@@H]3CCCNC3)c(F)c2)o1 [Example 765, (R)—N-(6-chloro-8-methylisoquinolin-1-yl)-2-fluoro-4-(5-methyl-1,3,4-oxadiazol-2-yl)-N-(piperidin-3-yl)benzamide] |
| 220 nM | Cc1cccc2ccnc(N(C(=O)c3ccc(-c4cncc(C(N)=O)n4)cc3F)[C@@H]3CCCNC3)c12 [Example 318, (R)-6-(3-fluoro-4-((8-methylisoquinolin-1-yl)(piperidin-3-yl)carbamoyl)phenyl) pyrazine-2-carboxamide] |
| 6.9 nM | Cc1cc(Cl)cc2ccnc(N(C(=O)c3ccc(-c4cn(C)nn4)cc3F)[C@@H]3CCCNC3)c12 [Example 444, N-(6-chloro-8-methyl-1-isoquinolyl)-2-fluoro-4-(1-methyltriazol-4-yl)-N-[(3R)-3-piperidyl] benzamide] |
| 63 nM | Nc1ccc(-c2cc3c(N(C(=O)c4ccc(-n5nnc6cccnc65)cc4F)[C@@H]4CCCNC4)nccc3s2)cc1 [Example 412, N-[2-(4-aminophenyl)thieno[3,2-c]pyridin-4-yl]-2-fluoro-N-[(3R)-3-piperidyl]-4-(triazolo[4,5-b]pyridin-3-yl)benzamide] |
| 52 nM | COc1cc(C)c2c(N(C(=O)c3ccc(-c4nnc(C)s4)cc3)[C@@H]3CCCNC3)nccc2c1 [Example 866, N-(6-methoxy-8-methyl-1-isoquinolyl)-4-(5-methyl-1,3,4-thiadiazol-2-yl)-N-[(3R)-3-piperidyl]benzamide] |
| 140 nM | Cc1cc(Cl)cc2ccnc(N(C(=O)c3ccc(-c4nnn(C)c4C)cc3)[C@@H]3CCCNC3)c12 [Example 771, (R)—N-(6-chloro-8-methylisoquinolin-1-yl)-4-(1,5-dimethyl-1H-1,2,3-triazol-4-yl)-N-(piperidin-3-yl)benzamide] |
| 170 nM | CCc1nnc(-c2ccc(C(=O)N(c3nccc4scc(C)c34)[C@@H]3CCCNC3)c(F)c2)s1 [Example 698, (R)-4-(5-ethyl-1,3,4-thiadiazol-2-yl)-2-fluoro-N-(3-methylthieno[3,2-c]pyridin-4-yl)-N-(piperidin-3-yl)benzamide] |
| 160 nM | Cc1nnc(-c2ccc(C(=O)N(c3nccc4cccc(C)c34)[C@@H]3CCCNC3)cc2)s1 [Example 792, (R)-4-(5-methyl-1,3,4-thiadiazol-2-yl)-N-(8-methylisoquinolin-1-yl)-N-(piperidin-3-yl) benzamide] |
| 51 nM | Cc1cc(Cl)cc2ccnc(N(C(=O)c3ccc(-c4cn(C)nn4)cn3)[C@@H]3CCCNC3)c12 [Example 812, (R)—N-(6-chloro-8-methylisoquinolin-1-yl)-5-(1-methyl-1H-1,2,3-triazol-4-yl)-N-(piperidin-3-yl)picolinamide] |
